In patent publication US5955493A, “Thiamorphinans with neuroprotective activity” (priority 1995, dated 1999):

Experiments:
NMDA-induced convulsion = experiment: Inhibition of NMDA-induced convulsion (i.c.v. coinjection); format: in vivo, Male Swiss Webster mice
Description: Male Swiss Webster mice [(SW) fBR] 20-25 g (Canadian Breading Farms St. Constant, Quebec), were coinjected intracerebroventricullarly (i.c.v.) with various doses of test compound and NMDA (1 and 2 nmol; Sigma Chemical Co., St. Louis, Mo.) in total volume of 10 μl. […] The convulsive response to NMDA was within 5 minutes of injection, characterized by wild running, popcorn jumping and myoclonic seizures (i.e. repetitive movements involving all limbs simultaneously, usually accompanied by loss of righting reflex). A minimum of 15 animals were used in each treatment group. The number of mice convulsing in each group was recorded. The dose producing convulsions in 50% of the mice (CD50) was calculated by the method of Litchfield and Wilcoxon ("Manual and Pharmacological Calculations with Computer Programs", 2nd ed., Springer, N.Y., 1987).

[1] = test system: Kainic acid-induced convulsions; experiment: Inhibition of kainic acid-induced convulsions; format: in vivo, Male Swiss Webster mice; settings: i.c.v.
Description: (§1) Male Swiss Webster mice [(SW) fBR]20-25 g, were coinjected intracerebroventricullarly (i.c.v.) with various doses of test compounds, α- and β-sulfallorphan, with AMPA (0.25-2.0) nmol; Research Biochemical Inc.) kainic acid (0.25-0.75 nmol; Sigma Chemical Co.) and biculline (1-10 nmol; Research Biochemical Inc.) in total volume of 10 μl. […] The convulsive response to the AMPA, kainic acid and biculline was within 5 minutes of injection, characterized by wild running, popcorn jumping and myoclonic seizures (i.e. repetitive movements involving all limbs simultaneously, usually accompanied by loss of righting reflex). A minimum of 15 animals were used in each treatment group. The number of mice convulsing in each group was recorded. The dose producing convulsions in 50% of the mice (CD50) was calculated by the method of Litchfield and Wilcoxon. LD50, the dose producing mortality in 50% of the mice, was determined by Fisher's exect test. The results for both α- and β-sulfallorphan are summarized below in tables II and III.

AMPA-induced convulsions = experiment: Inhibition of AMPA-induced convulsions; format: in vivo, Male Swiss Webster mice; settings: i.c.v.
Description: as §1, with “[…];” for “with AMPA (0.25-2.0) nmol;”

[2] = test system: Bicuculline-induced convulsions; experiment: Inhibition of bicuculline-induced convulsions; format: in vivo, Male Swiss Webster mice; settings: i.c.v.
Description: as §1

Mice [3] = experiment: Locomotion and falling behavior; format: in vivo; settings: i.c.v.; for % mice showing significant effect (locomotion): at min. dose for locomotion; for min. dose for falling / min. dose for locomotion: observed 15 to 30 min after injection; for % mice showing significant effect (falling): at min. dose for falling
Description: Mice were placed individually in observation cages for a 60 minute habituation period, injected i.c.v. with the different compounds and observed from 15 to 30 min. after injection. Locomotion and falling behavior were assessed according to the procedure of Koek and Colpaert (J. Pharm. Exp. Ther., 1990, 252:349). For each mouse the presence of locomotion (locomotion with all four legs moving for at least 15 seconds) and falling behavior (falling from rearing or standing position backward or to the side) was recorded. Statistical significance of drug-induced changes in the occurrence of a particular behavior was tested by the method of Fray et al […].

Mice [4] = experiment: Rotarod test (motor effects); format: in vivo; settings: i.c.v.; for Max. % mice showing motor effect: rotarod 8 revolutions per min, *P ≤ 0.05 as compared with control
Description: The rotarod treadmill for mice (model 7600, UGO Basile, Italy) was used to assess the motor effects of the test compounds. The method used was similar to the procedure described by Dunham and Miya (J. Am. Pharmac. Assoc., 1957, 46:208). The apparatus consisted of a rod with a diameter of 2.5 cm which was suspended horizontally 50 cm above a plain working area. The rod was turned at a speed of 8 revolutions per min. Circular perspex separators were placed at intervals along the rod so that five animals could be tested at the same time. Before administering any compound, all tested mice were placed on the turning rod for 1 min on two consecutive days. Mice that fell from the rod during this test were excluded. The test compounds were administered i.c.v. and the % of mice showing motor effects was monitored.

Row | SMILES | CD50 (NMDA-induced convulsion; 1 nmol NMDA) | CD50 (NMDA-induced convulsion; 2 nmol NMDA) | Max. % mice showing motor effect (Mice [4]) | further results
1 | C=CC[S+]1CC[C@]23CCCC[C@H]2[C@H]1Cc1ccc(O)cc13 (stereo partly drawn) [β-sulfallorphan 16, 3-hydroxy-17-deaza-17-allylthionium-17-thiamorphinan] | 0.015 nmol/mouse | 0.28 nmol/mouse | 20% | CD50 ([1]; CD50 of kainic acid (0.25-0.72 nmol/mouse) with 0.4 nmol/mouse β-sulfallorphan): 0.39 nmol/mouse; LD50 ([1]; LD50 of kainic acid (0.25-0.72 nmol/mouse) with 0.4 nmol/mouse β-sulfallorphan, none = no mortality observed at dose tested): none; CD50 (AMPA-induced convulsions; CD50 of AMPA (0.25-5 nmol/mouse) with 0.4 nmol/mouse β-sulfallorphan): 0.29 nmol/mouse; LD50 (AMPA-induced convulsions; LD50 of AMPA (0.25-5 nmol/mouse) with 0.4 nmol/mouse β-sulfallorphan, none = no mortality observed at dose tested): none; CD50 ([2]; CD50 of bicuculline (1-10 nmol/mouse) with 0.4 nmol/mouse β-sulfallorphan): 3.12 nmol/mouse; LD50 ([2]; LD50 of bicuculline (1-10 nmol/mouse) with 0.4 nmol/mouse β-sulfallorphan, none = no mortality observed at dose tested): none; % mice showing significant effect (locomotion) (Mice [3]): 20%; locomotion and falling behavior (statement) (Mice [3]): less locomotion than dextromethorphan and required greater amount to exhibit a significant effect; min. dose for falling (Mice [3]): no effect; min. dose for locomotion (Mice [3]): 1.25 nmol/mouse
2 | CC(C)=CC[S+]1CC[C@]23CCCC[C@H]2[C@H]1Cc1ccc(O)cc13 (relative stereo) [compound 13, 3-hydroxy-17-deaza-17-dimethylallylthionium-17-thiamorphinan] | 0.19 nmol/mouse |  | 0% | 
3 | C=CCN1CC[C@]23CCCC[C@H]2[C@H]1Cc1ccc(O)cc13 [levallorphan] | 1.06 nmol/mouse | > 20 nmol/mouse |  | 
4 | Oc1ccc2c(c1)[C@@]13CCCC[C@H]1[C@@H](C2)[S+](CCc1ccccc1)CC3 (relative stereo) [compound 14, 3-hydroxy-17-deaza-17-phenethylthionium-17-thiamorphinan] | 0.99 nmol/mouse |  | 20% | 
5 | CN1CC[C@]23CCCC[C@H]2[C@H]1Cc1ccc(O)cc13 [levorphanol] | 0.21 nmol/mouse | > 200 nmol/mouse |  | 
6 | C[C@]12N[C@H](Cc3ccccc31)c1ccccc12 [MK-801] |  |  |  | % mice showing significant effect (falling) (Mice [3]): 50%; % mice showing significant effect (locomotion) (Mice [3]): 30%; min. dose for falling (Mice [3]): 1.50 nmol/mouse; min. dose for locomotion (Mice [3]): 0.25 nmol/mouse
7 | COc1ccc2c(c1)[C@]13CCCC[C@@H]1[C@H](C2)N(C)CC3 [dextromethorphan] |  |  |  | % mice showing significant effect (falling) (Mice [3]): 27%; % mice showing significant effect (locomotion) (Mice [3]): 30%; min. dose for falling (Mice [3]): 0.20 nmol/mouse; min. dose for locomotion (Mice [3]): 0.10 nmol/mouse
8 | CN1CC[C@@]23CCCC[C@@H]2[C@@H]1Cc1ccc(O)cc13 [dextrorphan, reference compound] | 0.55 nmol/mouse | > 100 nmol/mouse | 60% | motor effect (statement) (Mice [4]; α-sulfallorphan 30 nmol/mouse, dextrorphan 60 nmol/mouse): induces a significant rise in motor effect
9 | C=CCN1CC[C@@]23CCCC[C@@H]2[C@@H]1Cc1ccc(O)cc13 [dextrallorphan] | 2.68 nmol/mouse | 43.2 nmol/mouse |  | 
10 | C=CC[S+]1CC[C@]23CCCC[C@H]2[C@H]1Cc1ccc(O)cc13 (relative stereo) [compound 12, 3-hydroxy-17-deaza-17-allylthionium-17-thiamorphinan] | 0.07 nmol/mouse |  |  | 
11 | C[S+]1CC[C@]23CCCC[C@H]2[C@H]1Cc1ccc(O)cc13 (relative stereo) [compound 17, 3-hydroxy-17-deaza-17-methylthionium-17-thiamorphinan] | 0.02 nmol/mouse |  | 60% | 
